Data set [1] relates to human colon carcinoma cell line HT29 wt (wild type). The data set can be described thus: Antiproliferative effect on the HT29 wt cell line (MTT assay). The data set is classed as cell-based. Particulars: 10% FCS, incubation 48 h to 96 h. As for the experimental part:
B-2. Determination of the Antiproliferative Effect on the HT29 Wt Cell Line:
A defined cell number of the human colon carcinoma cell line HT29 wt (wild type) was sown in a 96-well microtiter plate in complete medium (10% FCS-RPMI) (2500 cells/well) and incubated at 37° C./5% CO2 overnight. After 18 h, the sowing medium was replaced by fresh medium with 10% FCS. Treatment was initiated by addition of the respective test substance. From the substances to be investigated, dose/activity curves in a concentration range of from 10^−5 M to 10^−14 M (1:10-dilution series) were determined. The chosen incubation times were from 48 h to 96 h. Pro-liferation was determined with the aid of the MTT assays (ATCC, Manassas, Va., USA, catalogue No. 30-1010K). After the incubation time, the MTT reagent was incubated with the cells for 4 h, and the cells were subsequently lysed by adding the detergent overnight. The dye formed was detected at 570 nm. Proliferation of cells which had not been treated with test substance, but had otherwise been treated identically, was defined as 100%. The data obtained from this test are triple determinations, and at least two independent experiments were carried out.
Background: Tetrazolium assays rely on reduction of a dye to a coloured formazan, in cell work by metabolically active cells.

For data set [2], the system named is human renal cancer cell line 786-0. The experiment in a line: Antiproliferative effect on the 786-0 RCC cell line (MTT assay). The data set is classed as cell-based. Particulars: incubation 48 h to 96 h. The protocol:
B-1. Determination of the Antiproliferative Effect on the 786-0 RCC Cell Line:
A defined cell number of the human renal cancer cell line 786-0 was sown in a 96-well microtiter plate in complete medium (2500 or 7000 cells/well) and incubated at 37° C./5% CO2 overnight. After 18 h, the sowing medium was replaced by serum-free medium or medium with 2% FCS. Treatment was initiated by addition of the respective test substance in varying concentration (10^−5 M to […]). The chosen incubation times were from 48 h to 96 h. Proliferation was determined with the aid of the MTT assays (ATCC, Manassas, Va., USA, catalogue No. 30-1010K). After the incubation time, the MTT reagent was incubated with the cells for 4 h, and the cells were subsequently lysed by adding the detergent overnight. The dye formed was detected at 570 nm. […] The data obtained from this test are triple determinations, and at least two independent experiments were carried out.

A short description of data set [3]: Plasma stability in vitro, rat plasma. The data set is classed as in vitro ADME. The note with it: male, Wistar, rat plasma (Li heparin), 37° C., Method A (HPLC). The protocol: B-4. Determination of the Plasma Stability in vitro:
1 mg of the test substance in question was dissolved in 0.5 ml of acetonitrile/DMSO (9:1). From this solution, 20 μl were removed and added to 1 ml of rat or human plasma at 37° C. (plasma of male Wistar rats with Li heparin from Harlan & Winkelmann or fresh human leukocyte-depleted plasma originating from a whole blood sample). From this plasma solution, which was shaken vigorously, 100 μl aliquots were removed immediately after addition of the sample (initial value as reference) and then after 5, 10, 30, 60, 120, 180 and 240 minutes and optionally after 24 hours and added to 300 μl of acetonitrile. The precipitated plasma proteins were removed by centrifugation at 5000 rpm for 10 minutes, and 30 μl of the supernatant were analysed by HPLC for its content of unmodified test substance. Quantification was via the area percentages of the corresponding peaks.
HPLC Method for Rat Plasma:
Instrument: Agilent 1200 with DAD, binary pump, autosampler, column oven and thermostat; column: Kromasil 100 C18, 250 mm×4 mm, […]; column temperature: 45° C.; mobile phase A: 5 ml of perchloric acid/1 of water, mobile phase B: acetonitrile; gradient: 0-8 min 98% A, 2% B; 8-15 min 56% A, 44% B; […] 10% A, 90% B; 20-21 min 10% A, 90% B; […] 98% A, 2% B; […] 98% A, 2% B; flow rate: 2 ml/min; UV detection: 220 nm.
The test substance was incubated in rat or human plasma at 37° C. over a period of 5 h with gentle stirring. At different points in time (0, 2, 5, 10, 20, 30, 60, 120, 180 and 300 minutes), a 100 μl aliquot was removed. Following addition of internal standard (10 μl), the proteins were precipitated by addition of 200 μl of acetonitrile and the mixture was centrifuged in an Eppendorf centrifuge for 5 minutes. After addition of 150 μl of ammonium acetate buffer pH 3 to 150 μl of the supernatant, the content of unmodified test substance was analysed by LC/MSMS.

Setting [4] is: Homo sapiens, HT-29, HT29 wt cells.
The mark [5] stands for this setting: Homo sapiens, 786-0, 786-0 cells.

pIC50: −log10 of the molar value. Where a name gives a salt, the structure may show the parent alone. Starred links: 1 amine or outer side, 2 acyl side, 3 side chain; linkers in the order of their positions; H or OH if unused. Non-standard residues stand in square brackets, D forms with d. Residues, ends and D or L forms follow the SMILES beside them. *: point of attachment. NMeVal(N-(CH2)3COOH) = CC(C)[C@@H](C(=O)*)N(C)CCCC(=O)O; Dolaproine = CO[C@@H]([C@@H]1CCCN1)[C@@H](C)C(=O)O; X4 = O=C([C@]1(N[*:1])C[C@H]1c1ccccc1)[*:2]; Dil = CC[C@H](C)[C@H](NC)[C@@H](CC(=O)O)OC; X7 = COC(=O)CCCN(C)[C@H](C(=O)*)C(C)C; αMeF = C[C@](N)(Cc1ccccc1)C(=O)O; X5 = CC(C)[C@@H](C(=O)*)N(C)CCO; Oxazinan2yl(1,2) = C1CCN(*)OC1; NMeV = CN[C@H](C(=O)O)C(C)C; X3 = c1ccc2c(c1)CON(*)C2; X6 = C1=CC2CCC1ON2*

From patent US8722629B2, “Auristatin derivatives and use thereof” (Seattle Genetics, Inc., priority 2010, dated 2014) come the findings set out here.

Broadly, the pIC50 is the IC50 on a negative log10 scale, so that one unit is a factor of ten. A low value points to a large IC50. For the compound `CC[C@H](C)[C@@H]([C@@H](CC(=O)N1CCC[C@H]1[C@H](OC)[C@@H](C)C(=O)N[C@@H](Cc1ccccc1)C(=O)N1CCCCO1)OC)N(C)C(=O)[C@@H](NC(=O)[C@H](C(C)C)N(C)CCO)C(C)C` [Example 2, N-(2-Hydroxyethyl)-N-methyl-L-valyl-N-[(3R,4S,5S)-3-methoxy-1-{(2S)-2-[(1R,2R)-1-methoxy-2-methyl-3-{[(2S)-1-(1,2-oxazinan-2-yl)-1-oxo-3-phenylpropan-2-yl]amino}-3-oxopropyl]pyrrolidin-1-yl}-5-methyl-1-oxoheptan-4-yl]-N-methyl-L-valinamide] (X5-V[Dil][Dolaproine]F-{Oxazinan2yl(1,2)}), the pIC50 in data set [1] (setting [4]) was 9.30. Take `CC[C@H](C)[C@@H]([C@@H](CC(=O)N1CCC[C@H]1[C@H](OC)[C@@H](C)C(=O)N[C@@H](Cc1ccccc1)C(=O)N1OC2C=CC1CC2)OC)N(C)C(=O)[C@@H](NC(=O)[C@@H](NC)C(C)C)C(C)C` (stereo partly drawn) [Example 6, N-Methyl-L-valyl-N-[(3R,4S,5S)-3-methoxy-1-{(2S)-2-[(1R,2R)-1-methoxy-2-methyl-3-{[(2S)-1-(2-oxa-3-azabicyclo[2.2.2]oct-5-en-3-yl)-1-oxo-3-phenylpropan-2-yl]amino}-3-oxopropyl]pyrrolidin-1-yl}-5-methyl-1-oxoheptan-4-yl]-N-methyl-L-valinamide, trifluoroacetic acid salt] (H-[NMeV]V[Dil][Dolaproine]F-X6): the pIC50 in data set [2] (setting [5]) was 9.30. In data set [2] (setting [5]), `CC[C@H](C)[C@@H]([C@@H](CC(=O)N1CCC[C@H]1[C@H](OC)[C@@H](C)C(=O)N[C@@H](Cc1ccccc1)C(=O)N1Cc2ccccc2CO1)OC)N(C)C(=O)[C@@H](NC(=O)[C@@H](NC)C(C)C)C(C)C` [Example 8, N-Methyl-L-valyl-N-[(3R,4S,5S)-1-{(2S)-2-[(1R,2R)-3-{[(2S)-1-(1,4-dihydro-3H-2,3-benzoxazin-3-yl)-1-oxo-3-phenylpropan-2-yl]amino}-1-methoxy-2-methyl-3-oxopropyl]pyrrolidin-1-yl}-3-methoxy-5-methyl-1-oxoheptan-4-yl]-N-methyl-L-valinamide, trifluoroacetic acid salt] (H-[NMeV]V[Dil][Dolaproine]F-X3) showed a negative-log IC50 (pIC50) of 8.62. Against the preceding compound, the pIC50 is 0.68 log units lower. Take `CC[C@H](C)[C@@H]([C@@H](CC(=O)N1CCC[C@H]1[C@H](OC)[C@@H](C)C(=O)N[C@@H](Cc1c[nH]c2ccccc12)C(=O)N1CCCCO1)OC)N(C)C(=O)[C@@H](NC(=O)[C@@H](NC)C(C)C)C(C)C` [Example 9, N-Methyl-L-valyl-N-[(3R,4S,5S)-1-{(2S)-2-[(1R,2R)-3-{[(2S)-3-(1H-indol-3-yl)-1-(1,2-oxazinan-2-yl)-1-oxopropan-2-yl]amino}-1-methoxy-2-methyl-3-oxopropyl]pyrrolidin-1-yl}-3-methoxy-5-methyl-1-oxoheptan-4-yl]-N-methyl-L-valinamide, trifluoroacetic acid salt] (H-[NMeV]V[Dil][Dolaproine]W-{Oxazinan2yl(1,2)}): the pIC50 is 8.52 in data set [2] (setting [5]) and 8.85 in data set [1] (setting [4]). As a reminder, the half-life is the time needed for the level to fall by half in the phase considered. The low end stands for fast loss, the high end for slow loss. `CC[C@H](C)[C@@H]([C@@H](CC(=O)N1CCC[C@H]1[C@H](OC)[C@@H](C)C(=O)N[C@@]1(C(=O)N2CCCCO2)C[C@H]1c1ccccc1)OC)N(C)C(=O)[C@@H](NC(=O)[C@@H](NC)C(C)C)C(C)C` [Example 16, N-Methyl-L-valyl-N-[(3R,4S,5S)-3-methoxy-1-{(2S)-2-[(1R,2R)-1-methoxy-2-methyl-3-{[(1S,2S)-1-(1,2-oxazinan-2-ylcarbonyl)-2-phenylcyclopropyl]amino}-3-oxopropyl]pyrrolidin-1-yl}-5-methyl-1-oxoheptan-4-yl]-N-methyl-L-valinamide, trifluoroacetic acid salt] (H-[NMeV]V[Dil][Dolaproine][X4]-{Oxazinan2yl(1,2)}): the negative logarithm of the IC50 (pIC50) in data set [2] (setting [5]) is 8.10. Besides, the half-life at 39.2 µg/ml in data set [3] is 0.75 h. The compound `CC[C@H](C)[C@@H]([C@@H](CC(=O)N1CCC[C@H]1[C@H](OC)[C@@H](C)C(=O)N[C@@](C)(Cc1ccccc1)C(=O)N1CCCCO1)OC)N(C)C(=O)[C@@H](NC(=O)[C@@H](NC)C(C)C)C(C)C` [Example 22, N-Methyl-L-valyl-N-[(3R,4S,5S)-3-methoxy-1-{(2S)-2-[(1R,2R)-1-methoxy-2-methyl-3-{[(2S)-2-methyl-1-(1,2-oxazinan-2-yl)-1-oxo-3-phenylpropan-2-yl]amino}-3-oxopropyl]pyrrolidin-1-yl}-5-methyl-1-oxoheptan-4-yl]-N-methyl-L-valinamide, trifluoroacetic acid salt] (H-[NMeV]V[Dil][Dolaproine][αMeF]-{Oxazinan2yl(1,2)}) showed a half-life at 39.2 µg/ml in data set [3] of 2 h.

As for `CC[C@H](C)[C@@H]([C@@H](CC(=O)N1CCC[C@H]1[C@H](OC)[C@@H](C)C(=O)N[C@@H](Cc1ccccc1)C(=O)N1CCCCO1)OC)N(C)C(=O)[C@@H](NC(=O)[C@H](C(C)C)N(C)CCCC(=O)O)C(C)C` [Example 24, N-(3-Carboxypropyl)-N-methyl-L-valyl-N-[(3R,4S,5S)-3-methoxy-1-{(2S)-2-[(1R,2R)-1-methoxy-2-methyl-3-{[(2S)-1-(1,2-oxazinan-2-yl)-1-oxo-3-phenylpropan-2-yl]amino}-3-oxopropyl]-pyrrolidin-1-yl}-5-methyl-1-oxoheptan-4-yl]-N-methyl-L-valinamide] ({NMeVal(N-(CH2)3COOH)}-V[Dil][Dolaproine]F-{Oxazinan2yl(1,2)}), the pIC50 in data set [2] (setting [5]) is 8.30; in data set [1] (setting [4]), 8.82. In data set [2] (setting [5]), `CC[C@H](C)[C@@H]([C@@H](CC(=O)N1CCC[C@H]1[C@H](OC)[C@@H](C)C(=O)N[C@@]1(C(=O)N2CCCCO2)C[C@@H]1c1ccccc1)OC)N(C)C(=O)[C@@H](NC(=O)[C@H](C(C)C)N(C)CCCCCC(=O)O)C(C)C` [Example 26, N-(5-Carboxypentyl)-N-methyl-L-valyl-N-[(3R,4S,5S)-3-methoxy-1-{(2S)-2-[(1R,2R)-1-methoxy-2-methyl-3-{[(1S,2R)-1-(1,2-oxazinan-2-ylcarbonyl)-2-phenylcyclopropyl]amino}-3-oxopropyl]-pyrrolidin-1-yl}-5-methyl-1-oxoheptan-4-yl]-N-methyl-L-valinamide] had a pIC50 of 7.74. With `CC[C@H](C)[C@@H]([C@@H](CC(=O)N1CCC[C@H]1[C@H](OC)[C@@H](C)C(=O)N[C@@H](Cc1ccccc1)C(=O)N1CCCCO1)OC)N(C)C(=O)[C@@H](NC(=O)[C@H](C(C)C)N(C)CCCC(=O)OC)C(C)C` [Example 29, N-(4-Methoxy-4-oxobutyl)-N-methyl-L-valyl-N-[(3R,4S,5S)-3-methoxy-1-{(2S)-2-[(1R,2R)-1-methoxy-2-methyl-3-{[(2S)-1-(1,2-oxazinan-2-yl)-1-oxo-3-phenylpropan-2-yl]amino}-3-oxopropyl]pyrrolidin-1-yl}-5-methyl-1-oxoheptan-4-yl]-N-methyl-L-valinamide] (X7-V[Dil][Dolaproine]F-{Oxazinan2yl(1,2)}), the pIC50 in data set [1] (setting [4]) is 10.00. Turning to `CC[C@H](C)[C@@H]([C@@H](CC(=O)N1CCC[C@H]1[C@H](OC)[C@@H](C)C(=O)N[C@@H](Cc1ccccc1)C(=O)O)OC)N(C)C(=O)[C@@H](NC(=O)[C@@H](NC)C(C)C)C(C)C` [MMAF, Monomethylauristatin F, reference compound] (H-[NMeV]V[Dil][Dolaproine]F-OH), the pIC50 in data set [2] (786-0 cells) was 6.59; in data set [1] (HT29 wt cells), 8.00.
